The text below walks through data of patent US20120283216A1, “FUNGICIDAL 2-(BICYCLIC ARYLOXY)CARBOXAMIDES” (priority 2009, published 2012).

The structures appear in SMILES notation.

Common to all, as to type: in vivo
Experiment [1] deals with Blumeria graminis f. sp. tritici. Description: Test A: wheat powdery mildew, preventive spray on wheat seedlings, visual disease rating. As to conditions: preventive spray at 40 ppm, rated 8 days after inoculation; for pest or weed control at 40 ppm: Blumeria graminis, 192 h, read-out: Test A disease control rating (100 = 100% disease control, 0 = no disease control relative to the controls). The source says:
General protocol for preparing test suspensions for Tests A-C: the test compounds were first dissolved in acetone in an amount equal to 11% of the final volume and then suspended at the desired concentration (in ppm) in acetone and purified water (50/50 mix by volume) containing 250 ppm of the surfactant Trem® 014 (polyhydric alcohol esters). The resulting test suspensions were then used in Tests A-C. Spraying a 40 ppm test suspension to the point of run-off on the test plants was the equivalent of a rate of 800 g/ha. The test suspension was sprayed to the point of run-off on wheat seedlings. The following day the seedlings were inoculated with a spore dust of Blumeria graminis f. sp. tritici, (the causal agent of wheat powdery mildew) and incubated in a growth chamber at 20° C. for 8 days, after which time disease ratings were visually made. Results for Tests A-C are given in Table A. In the Table, a rating of 100 indicates 100% disease control and a rating of 0 indicates no disease control (relative to the controls). A dash (-) indicates no test results. All results are from applications of 40 ppm.

Experiment [2] deals with Septoria tritici. The experiment in a line: Test B: wheat leaf blotch, preventive spray on wheat seedlings, visual disease rating. The note with it: preventive spray at 40 ppm, rated after 48 h + 19 days; for pest or weed control at 40 ppm: Zymoseptoria tritici, 504 h, read-out: Test B disease control rating (100 = 100% disease control, 0 = no disease control relative to the controls). From the text:
General protocol for preparing test suspensions for Tests A-C: the test compounds were first dissolved in acetone in an amount equal to 11% of the final volume and then suspended at the desired concentration (in ppm) in acetone and purified water (50/50 mix by volume) containing 250 ppm of the surfactant Trem® 014 (polyhydric alcohol esters). The resulting test suspensions were then used in Tests A-C. Spraying a 40 ppm test suspension to the point of run-off on the test plants was the equivalent of a rate of 800 g/ha. The test suspension was sprayed to the point of run-off on wheat seedlings. The following day the seedlings were inoculated with a spore suspension of Septoria tritici (the causal agent of wheat leaf blotch) and incubated in a saturated atmosphere at 20° C. for 48 h, and then moved to a growth chamber at 20° C. for 19 days, after which time disease ratings were visually made. Results for Tests A-C are given in Table A. In the Table, a rating of 100 indicates 100% disease control and a rating of 0 indicates no disease control (relative to the controls). A dash (-) indicates no test results. All results are from applications of 40 ppm.

In experiment [3] the test system is Botrytis cinerea. Description: Test C: tomato botrytis, preventive spray on tomato seedlings, visual disease rating. The note with it: preventive spray at 40 ppm, rated after 48 h + 3 days; for pest or weed control at 40 ppm: Botrytis cinerea, 120 h, read-out: Test C disease control rating (100 = 100% disease control, 0 = no disease control relative to the controls). The source says:
General protocol for preparing test suspensions for Tests A-C: the test compounds were first dissolved in acetone in an amount equal to 11% of the final volume and then suspended at the desired concentration (in ppm) in acetone and purified water (50/50 mix by volume) containing 250 ppm of the surfactant Trem® 014 (polyhydric alcohol esters). The resulting test suspensions were then used in Tests A-C. Spraying a 40 ppm test suspension to the point of run-off on the test plants was the equivalent of a rate of 800 g/ha.
The test suspension was sprayed to the point of run-off on tomato seedlings. The following day the seedlings were inoculated with a spore suspension of Botrytis cinerea (the causal agent of tomato botrytis) and incubated in saturated atmosphere at 20° C. for 48 h, and then moved to a growth chamber at 27° C. for 3 additional days, after which time disease ratings were visually made.
Results for Tests A-C are given in Table A. In the Table, a rating of 100 indicates 100% disease control and a rating of 0 indicates no disease control (relative to the controls). A dash (-) indicates no test results. All results are from applications of 40 ppm.

Regarding `C#CC(C)(C)NC(=O)C(OC)Oc1ccc2ccc(OCCC)cc2c1` (stereo not shown) [Compound 126], in experiment [1], the “Test A disease control rating (100 = 100% disease control, 0 = no disease control relative to the controls)” value was found to be 72%. The “Test B disease control rating (100 = 100% disease control, 0 = no disease control relative to the controls)” value in experiment [2] was found to be 99%. In addition, the “Test C disease control rating (100 = 100% disease control, 0 = no disease control relative to the controls)” value in experiment [3] amounted to 99%.
As to `CCC(Oc1cc2cc(F)ccc2cn1)C(=O)NC(C)(C)C` (stereo not shown) [Compound 66], the “Test A disease control rating (100 = 100% disease control, 0 = no disease control relative to the controls)” value in experiment [1] stood at 79%. Also, the “Test B disease control rating (100 = 100% disease control, 0 = no disease control relative to the controls)” value in experiment [2] was 0%. Also, the “Test C disease control rating (100 = 100% disease control, 0 = no disease control relative to the controls)” value in experiment [3] came out at 88%.
As to `CCC(Oc1ccc2ccc(Br)cc2c1)C(=O)NC(C)(C)CN=CN(C)C` (stereo not shown) [Compound 15, 2-[(7-bromo-2-naphthalenyl)oxy]-N-[2-[[(dimethylamino)methylene]amino]-1,1-dimethylethyl]butanamide], the pest or weed control at 40 ppm in experiment [1] turned out to be 43%; in experiment [2] it was 100%; in experiment [3], 100%.
Regarding `CCC(Oc1cnc2c(Cl)cc(Cl)cc2c1)C(=O)NC(C)(C)COC` (stereo not shown) [Compound 56], in experiment [1], the “Test A disease control rating (100 = 100% disease control, 0 = no disease control relative to the controls)” value stood at 0%. In experiment [2], the “Test B disease control rating (100 = 100% disease control, 0 = no disease control relative to the controls)” value turned out to be 99%. Besides, in experiment [3], the “Test C disease control rating (100 = 100% disease control, 0 = no disease control relative to the controls)” value was found to be 99%.
On to `CCC(Oc1ccc2ccc(C#N)cc2c1)C(=O)NC(C)(C)C` (stereo not shown) [Compound 33], for which the values for the pest or weed control at 40 ppm in experiment [1], in experiment [2] and in experiment [3] were 62%, 99% and 95%, respectively.
As to `CCc1ccc2ccc(OC(CC)C(=O)NC(C)(C)COC)cc2c1` (stereo not shown) [Compound 138, 2-[(7-ethyl-2-naphthalenyl)oxy]-N-(2-methoxy-1,1-dimethylethyl)-butanamide], the figures for the pest or weed control at 40 ppm in experiment [1], in experiment [2] and in experiment [3] were 99%, 83% and 100%, respectively.
Take `CCOc1ccc2ccc(OC(OC)C(=O)NC(C)(C)COC)cc2c1` (stereo not shown) [Compound 70]: the “Test A disease control rating (100 = 100% disease control, 0 = no disease control relative to the controls)” value in experiment [1] worked out at 100%. The “Test B disease control rating (100 = 100% disease control, 0 = no disease control relative to the controls)” value in experiment [2] is 100%. Besides, the “Test C disease control rating (100 = 100% disease control, 0 = no disease control relative to the controls)” value in experiment [3] was 98%.
Turning to `COC(Oc1ccc2ccc(I)cc2c1)C(=O)NC(C)(C)C#N` (stereo not shown) [Compound 104], the “Test A disease control rating (100 = 100% disease control, 0 = no disease control relative to the controls)” value in experiment [1] was determined as 94%. In addition, the “Test B disease control rating (100 = 100% disease control, 0 = no disease control relative to the controls)” value in experiment [2] came out at 100%. In experiment [3], the “Test C disease control rating (100 = 100% disease control, 0 = no disease control relative to the controls)” value came out at 99%.
Consider `CCC(Oc1ccc2ccc(Br)cc2c1)C(=O)NN(C)C` (stereo not shown) [Compound 9], for which the pest or weed control at 40 ppm in experiment [1] stood at 69%; in experiment [2], 99%; in experiment [3], 99%.
In the case of `CCC(Oc1cnc2ccc(Br)cc2c1)C(=O)NC(C)(C)CO` (stereo not shown) [Compound 39], the “Test A disease control rating (100 = 100% disease control, 0 = no disease control relative to the controls)” value in experiment [1] came to 21%. The “Test B disease control rating (100 = 100% disease control, 0 = no disease control relative to the controls)” value in experiment [2] is on record as 0%. In addition, the “Test C disease control rating (100 = 100% disease control, 0 = no disease control relative to the controls)” value in experiment [3] came out at 33%.
On to `CCC(Oc1ccc2ccc(Br)cc2c1)C(=O)NC(C)(C)C` (stereo not shown) [Compound 8, 2-[(7-bromo-2-naphthalenyl)oxy]-N-(1,1-dimethylethyl)butanamide], for which the pest or weed control at 40 ppm in experiment [1] came out at 100%; in experiment [2], 99%; in experiment [3], 99%.
Turning to `CCC(Oc1ccc2ccc(Br)cc2c1)C(=O)NC(C)(C)CC` (stereo not shown) [Compound 102], in experiment [1], the “Test A disease control rating (100 = 100% disease control, 0 = no disease control relative to the controls)” value amounted to 0%. Further, the “Test B disease control rating (100 = 100% disease control, 0 = no disease control relative to the controls)” value in experiment [2] is 96%. In addition, in experiment [3], the “Test C disease control rating (100 = 100% disease control, 0 = no disease control relative to the controls)” value was 61%.
In the case of `CCC(Oc1ccc2ccc(OC)cc2c1)C(=O)NC(C)(C)C` (stereo not shown) [Compound 3, N-(1,1-dimethylethyl)-2-[(7-methoxy-2-naphthalenyl)oxy]butan amide], the values for the pest or weed control at 40 ppm in experiment [1], in experiment [2] and in experiment [3] were 100%, 99% and 99%, respectively.
Take `C#CC(C)(C)NC(=O)C(OC)Oc1cnc2ccc(I)cc2c1` (stereo not shown) [Compound 63, N-(1,1-dimethyl-2-propyn-1-yl)-2-[(6-iodo-3-quinolinyl)oxy]-2-methoxy-acetamide]: the results for the pest or weed control at 40 ppm in experiment [1], in experiment [2] and in experiment [3] were 93%, 99% and 99%, respectively.
With `CCC(Oc1cnc2ccc(F)cc2c1)C(=O)NC(C)(C)COC` (stereo not shown) [Compound 54], the “Test A disease control rating (100 = 100% disease control, 0 = no disease control relative to the controls)” value in experiment [1] was determined as 0%. In experiment [2], the “Test B disease control rating (100 = 100% disease control, 0 = no disease control relative to the controls)” value worked out at 71%. Besides, the “Test C disease control rating (100 = 100% disease control, 0 = no disease control relative to the controls)” value in experiment [3] is 0%.
Regarding `CCC(Oc1ccc2ccc(OC)cc2c1)C(=O)N(CC)C(C)(C)C` (stereo not shown) [Compound 167], the pest or weed control at 40 ppm in experiment [1] stood at 0%; in experiment [2], 64%; in experiment [3], 68%.
`C#CCOc1ccc2ccc(OC(CC)C(=O)NC(C)(C)C)cc2c1` (stereo not shown) [Compound 134]: the “Test A disease control rating (100 = 100% disease control, 0 = no disease control relative to the controls)” value in experiment [1] turned out to be 43%. In addition, the “Test B disease control rating (100 = 100% disease control, 0 = no disease control relative to the controls)” value in experiment [2] came to 100%. In addition, the “Test C disease control rating (100 = 100% disease control, 0 = no disease control relative to the controls)” value in experiment [3] is on record as 100%.
On to `CCC(Oc1ccc2ccc(Br)cc2c1)C(=O)NC(C)(C)C(F)(F)F` (stereo not shown) [Compound 27], for which the “Test A disease control rating (100 = 100% disease control, 0 = no disease control relative to the controls)” value in experiment [1] is given as 99%. Besides, in experiment [2], the “Test B disease control rating (100 = 100% disease control, 0 = no disease control relative to the controls)” value is on record as 86%. Also, the “Test C disease control rating (100 = 100% disease control, 0 = no disease control relative to the controls)” value in experiment [3] is on record as 98%.
On to `CCC(Oc1ccc2ccc(Br)cc2c1)C(=O)NC(C)(C)COC` (stereo not shown) [Compound 7, 2-[(7-bromo-2-naphthalenyl)oxy]-N-(2-methoxy-1,1-dimethylethyl)butanamide], for which the pest or weed control at 40 ppm in experiment [1] was determined as 100%; in experiment [2] it was 99%; in experiment [3] it was 99%.
With `COC(Oc1ccc2ccc(Br)cc2c1)C(=O)NC(C)(C)C` (stereo not shown) [Compound 100], the figures for the pest or weed control at 40 ppm in experiment [1] and in experiment [3] were 100% and 99%, respectively.
In the case of `COCOCC(C)(C)NC(=O)C(OC)Oc1ccc2ccc(Br)cc2c1` (stereo not shown) [Compound 99], the “Test A disease control rating (100 = 100% disease control, 0 = no disease control relative to the controls)” value in experiment [1] is on record as 96%. In experiment [3], the “Test C disease control rating (100 = 100% disease control, 0 = no disease control relative to the controls)” value was 100%.
On to `COC(Oc1ccc2ccc(Br)cc2c1)C(=O)NC(C)(C)CO` (stereo not shown) [Compound 98], for which, in experiment [1], the “Test A disease control rating (100 = 100% disease control, 0 = no disease control relative to the controls)” value is recorded as 64%. Moreover, the “Test C disease control rating (100 = 100% disease control, 0 = no disease control relative to the controls)” value in experiment [3] is reported as 99%.
The like results for `C#CC(C)(C)NC(=O)C(CC)Oc1ccc2ccc(Br)cc2c1` (stereo not shown) [Compound 31] were, in that order, 100% and 100%.
As to `C#Cc1ccc2ncc(OC(CC)C(=O)NC(C)(C)COC)cc2c1` (stereo not shown) [Compound 148], the “Test A disease control rating (100 = 100% disease control, 0 = no disease control relative to the controls)” value in experiment [1] is 100%. Besides, the “Test C disease control rating (100 = 100% disease control, 0 = no disease control relative to the controls)” value in experiment [3] was 100%.
